Measurements from ChEMBL document CHEMBL1152440, “Discovering potent small molecule inhibitors of cyclophilin A using de novo drug design approach” (J Med Chem, 2009).

Each compound was assayed against Peptidyl-prolyl cis-trans isomerase A (Homo sapiens, UniProt P62937).
Peptidyl-prolyl cis-trans isomerase A, sequence (P62937 whole entry): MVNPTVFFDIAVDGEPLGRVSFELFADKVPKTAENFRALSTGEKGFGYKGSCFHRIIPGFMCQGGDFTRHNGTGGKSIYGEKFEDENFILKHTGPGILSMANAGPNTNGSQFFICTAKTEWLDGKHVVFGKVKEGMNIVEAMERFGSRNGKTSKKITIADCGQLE
Description: Inhibition of peptidyl-prolyl isomerase activity of Cyclophilin A

IC50, Not Active:
COc1cccc(F)c1C(=O)NC(=O)NC1c2ccccc2-c2ccccc21
O=C(NC(=O)c1ccccc1)NC1c2ccccc2-c2ccccc21
O=C(NC(=O)c1c(F)cccc1OCc1ccccc1)NC1c2ccccc2-c2ccccc21
Cc1ccccc1C(=O)NC(=O)NC1c2ccccc2-c2ccccc21
O=C(NCCc1ccccc1)NC(=O)c1c(O)cccc1O
